From ChEMBL document CHEMBL1201862, “PubChem BioAssay data set” (2004)
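Method: 48-hour compound exposure of cells in 96-well plates, five concentrations, linear interpolation of endpoints. GI50 marks 50% less growth.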 Active and inactive are the calls of the source. Cut-off read from the data, not from the text of the source: active = GI50 up to about 1.1 µM and inactive = higher.

What was measured:
Test in all cases: DTP human tumour cell line panel, 48 h
DMS-273 = system: DMS-273
NCI/ADR-RES = system: NCI/ADR-RES
DU-145 = system: DU-145
M14 = system: M14
HCC 2998 = system: HCC 2998
HCT-15 = system: HCT-15
MDA-N = system: MDA-N
HL-60 = system: HL-60
SR = system: SR
NCI-H460 = system: NCI-H460
HOP-18 = system: HOP-18
OVCAR-4 = system: OVCAR-4
BT-549 = system: BT-549
NCI-H522 = system: NCI-H522
MDA-MB-231 = system: MDA-MB-231
786-0 = system: 786-0
DLD-1 = system: DLD-1
SNB-78 = system: SNB-78
M19-MEL = system: M19-MEL
DMS-114 = system: DMS-114
XF498 = system: XF498
MDA-MB-435 = system: MDA-MB-435
UO-31 = system: UO-31
HOP-92 = system: HOP-92
KM-20L2 = system: KM-20L2
Hs-578T = system: Hs-578T
RXF 393 = system: RXF 393
TK-10 = system: TK-10
ACHN = system: ACHN
T47D = system: T47D
PC-3 = system: PC-3
SK-MEL-2 = system: SK-MEL-2
HT-29 = system: HT-29
SF-539 = system: SF-539
SK-MEL-28 = system: SK-MEL-28
SK-OV-3 = system: SK-OV-3
NCI-H226 = system: NCI-H226
OVCAR-3 = system: OVCAR-3
RPMI-8226 = system: RPMI-8226
SNB-75 = system: SNB-75
MOLT-4 = system: MOLT-4
HCT-116 = system: HCT-116
LOX IMVI = system: LOX IMVI
OVCAR-8 = system: OVCAR-8
CAKI-1 = system: CAKI-1
SF-295 = system: SF-295
HOP-62 = system: HOP-62
CCRF-CEM = system: CCRF-CEM
A498 = system: A498
EKVX = system: EKVX
SNB-19 = system: SNB-19
SF-268 = system: SF-268
NCI-H23 = system: NCI-H23
MCF7 = system: MCF7
K562 = system: K562
OVCAR-5 = system: OVCAR-5
UACC-257 = system: UACC-257
A549 = system: A549
UACC-62 = system: UACC-62
U-251 = system: U-251
SK-MEL-5 = system: SK-MEL-5
COLO 205 = system: COLO 205
IGROV-1 = system: IGROV-1
SW-620 = system: SW-620
KM12 = system: KM12
SN12C = system: SN12C
Malme-3M = system: Malme-3M
LXFL 529 = system: LXFL 529

What does the source list for `CCCCCC(O)C1C(=O)OC(C)C(O)/C=C/C=C/C=C/C=C/C=C(\C)C(O)C(O)C(O)CC(O)CC(O)CC(O)CC(O)CC1O` (stereo not given)?
GI50 (DMS-273): 1.34 µM (inactive); GI50 (NCI/ADR-RES): 1.51 µM (inactive); GI50 (DU-145): > 100 µM (inactive); GI50 (M14): > 100 µM (inactive); GI50 (HCC 2998): 1.76 µM (inactive); GI50 (HCT-15): 2.42 µM; GI50 (MDA-N): > 100 µM (inactive); GI50 (HL-60): > 100 µM (inactive); GI50 (SR): > 100 µM (inactive); GI50 (NCI-H460): 1.56 µM (inactive); GI50 (HOP-18): 2.48 µM (inactive); GI50 (OVCAR-4): 1.82 µM (inactive); GI50 (BT-549): > 100 µM (inactive); GI50 (NCI-H522): 1.73 µM (inactive); GI50 (MDA-MB-231): > 100 µM (inactive); GI50 (786-0): > 100 µM (inactive); GI50 (DLD-1): 1.6 µM (inactive); GI50 (SNB-78): 1.88 µM (inactive); GI50 (M19-MEL): 1.24 µM (inactive); GI50 (DMS-114): 1.53 µM (inactive); GI50 (XF498): 1.49 µM (inactive); GI50 (MDA-MB-435): > 100 µM (inactive); GI50 (UO-31): 1.79 µM (inactive); GI50 (HOP-92): 1.71 µM (inactive); GI50 (KM-20L2): 2.28 µM (inactive); GI50 (Hs-578T): > 100 µM (inactive); GI50 (RXF 393): 1.41 µM (inactive); GI50 (TK-10): > 100 µM (inactive); GI50 (ACHN): > 100 µM (inactive); GI50 (T47D): > 100 µM (inactive); GI50 (PC-3): > 100 µM (inactive)

How did the GI50 (DMS-273) turn out when `CC1=C2C(O)C(C(C)C(=O)N(C)C)CCC2(C)C=CC1=O` (stereo not given) was run?
Its GI50 is > 100 µM (inactive).

What about the GI50 (SK-MEL-2) of the same compound?
Its GI50 is > 100 µM (inactive).

And the GI50 (NCI/ADR-RES)?
Its GI50 is > 100 µM (inactive).

And the GI50 (HT-29)?
The GI50 was > 100 µM (inactive).

And the GI50 (SF-539)?
Its GI50 is > 100 µM (inactive).

What about the GI50 (HCC 2998) of the same compound?
The GI50 was > 100 µM (inactive).

And the GI50 (HCT-15)?
The GI50 was over 100 µM.

And the GI50 (SK-MEL-28)?
The GI50 was > 100 µM (inactive).

What about the GI50 (SK-OV-3) of the same compound?
Its GI50 is > 100 µM (inactive).

And the GI50 (NCI-H226)?
Its GI50 is > 100 µM (inactive).

And the GI50 (HL-60)?
The GI50 was > 100 µM (inactive).

What about the GI50 (OVCAR-3) of the same compound?
Its GI50 is > 100 µM (inactive).

And the GI50 (RPMI-8226)?
The GI50 was > 100 µM (inactive).

And the GI50 (SNB-75)?
Its GI50 is > 100 µM (inactive).

And the GI50 (MOLT-4)?
Its GI50 is > 100 µM (inactive).

What about the GI50 (HCT-116) of the same compound?
The GI50 was > 100 µM (inactive).

And the GI50 (LOX IMVI)?
The GI50 was > 100 µM (inactive).

And the GI50 (OVCAR-8)?
Its GI50 is > 100 µM (inactive).

What about the GI50 (CAKI-1) of the same compound?
Its GI50 is > 100 µM (inactive).

What about the GI50 (NCI-H460) of the same compound?
The GI50 was > 100 µM (inactive).

And the GI50 (SF-295)?
Its GI50 is > 100 µM (inactive).

What about the GI50 (HOP-62) of the same compound?
Its GI50 is > 100 µM (inactive).

And the GI50 (HOP-18)?
Its GI50 is > 100 µM (inactive).

What about the GI50 (CCRF-CEM) of the same compound?
Its GI50 is > 100 µM (inactive).

And the GI50 (OVCAR-4)?
Its GI50 is > 100 µM (inactive).

What about the GI50 (NCI-H522) of the same compound?
The GI50 was > 100 µM (inactive).

And the GI50 (A498)?
Its GI50 is > 100 µM (inactive).

What about the GI50 (EKVX) of the same compound?
The GI50 was > 100 µM (inactive).

And the GI50 (SNB-19)?
The GI50 was > 100 µM (inactive).

And the GI50 (SF-268)?
Its GI50 is > 100 µM (inactive).

What about the GI50 (NCI-H23) of the same compound?
Its GI50 is > 100 µM (inactive).

What about the GI50 (MCF7) of the same compound?
Its GI50 is > 100 µM (inactive).

What about the GI50 (DLD-1) of the same compound?
Its GI50 is > 100 µM (inactive).

And the GI50 (SNB-78)?
Its GI50 is > 100 µM (inactive).

What about the GI50 (K562) of the same compound?
Its GI50 is > 100 µM (inactive).

And the GI50 (OVCAR-5)?
The GI50 was > 100 µM (inactive).

And the GI50 (M19-MEL)?
Its GI50 is > 100 µM (inactive).

What about the GI50 (UACC-257) of the same compound?
The GI50 was > 100 µM (inactive).

And the GI50 (DMS-114)?
The GI50 was > 100 µM (inactive).

And the GI50 (XF498)?
Its GI50 is > 100 µM (inactive).

And the GI50 (A549)?
The GI50 was > 100 µM (inactive).

What about the GI50 (UO-31) of the same compound?
Its GI50 is > 100 µM (inactive).

And the GI50 (HOP-92)?
Its GI50 is > 100 µM (inactive).

And the GI50 (KM-20L2)?
The GI50 was > 100 µM (inactive).

What about the GI50 (RXF 393) of the same compound?
The GI50 was > 100 µM (inactive).

And the GI50 (UACC-62)?
Its GI50 is > 100 µM (inactive).

And the GI50 (U-251)?
The GI50 was > 100 µM (inactive).

And the GI50 (SK-MEL-5)?
The GI50 was > 100 µM (inactive).

What about the GI50 (COLO 205) of the same compound?
Its GI50 is > 100 µM (inactive).

What about the GI50 (IGROV-1) of the same compound?
Its GI50 is > 100 µM (inactive).

What about the GI50 (SW-620) of the same compound?
Its GI50 is > 100 µM (inactive).

And the GI50 (KM12)?
The GI50 was > 100 µM (inactive).

What about the GI50 (SN12C) of the same compound?
Its GI50 is > 100 µM (inactive).

What does the source list for `CN(C)c1n/c(=N/c2ncn[nH]2)ss1`?
GI50 (DMS-273): > 100 µM (inactive); GI50 (SK-MEL-2): > 100 µM (inactive); GI50 (HT-29): > 100 µM (inactive); GI50 (SF-539): > 100 µM (inactive); GI50 (M14): > 100 µM (inactive); GI50 (HCC 2998): > 100 µM (inactive); GI50 (HCT-15): > 100 µM; GI50 (SK-MEL-28): > 100 µM (inactive); GI50 (SK-OV-3): > 100 µM (inactive); GI50 (NCI-H226): > 100 µM (inactive); GI50 (Malme-3M): > 100 µM (inactive); GI50 (HL-60): > 100 µM (inactive); GI50 (SR): > 100 µM (inactive); GI50 (LXFL 529): > 100 µM (inactive); GI50 (RPMI-8226): > 100 µM (inactive); GI50 (SNB-75): > 100 µM (inactive); GI50 (MOLT-4): > 100 µM (inactive); GI50 (HCT-116): > 100 µM (inactive); GI50 (LOX IMVI): > 100 µM (inactive); GI50 (OVCAR-8): > 100 µM (inactive); GI50 (CAKI-1): > 100 µM (inactive); GI50 (NCI-H460): > 100 µM (inactive); GI50 (SF-295): > 100 µM (inactive); GI50 (HOP-62): > 100 µM (inactive); GI50 (HOP-18): > 100 µM (inactive); GI50 (CCRF-CEM): > 100 µM (inactive); GI50 (OVCAR-4): > 100 µM (inactive); GI50 (NCI-H522): > 100 µM (inactive); GI50 (A498): > 100 µM (inactive); GI50 (EKVX): > 100 µM (inactive); GI50 (SNB-19): > 100 µM (inactive); GI50 (SF-268): > 100 µM (inactive); GI50 (NCI-H23): > 100 µM (inactive); GI50 (786-0): > 100 µM (inactive); GI50 (DLD-1): > 100 µM (inactive); GI50 (SNB-78): > 100 µM (inactive); GI50 (K562): > 100 µM (inactive); GI50 (OVCAR-5): > 100 µM (inactive); GI50 (M19-MEL): > 100 µM (inactive); GI50 (UACC-257): > 100 µM (inactive); GI50 (DMS-114): > 100 µM (inactive); GI50 (XF498): > 100 µM (inactive); GI50 (A549): > 100 µM (inactive); GI50 (UO-31): > 100 µM (inactive); GI50 (HOP-92): > 100 µM (inactive); GI50 (KM-20L2): > 100 µM (inactive); GI50 (RXF 393): > 100 µM (inactive); GI50 (TK-10): > 100 µM (inactive); GI50 (UACC-62): > 100 µM (inactive); GI50 (ACHN): > 100 µM (inactive); GI50 (U-251): > 100 µM (inactive); GI50 (SK-MEL-5): > 100 µM (inactive); GI50 (IGROV-1): > 100 µM (inactive); GI50 (SW-620): > 100 µM (inactive); GI50 (KM12): > 100 µM (inactive); GI50 (SN12C): > 100 µM (inactive)
